Experiments:
[1] = target: T1, Tyrosine-protein kinase JAK2 (Homo sapiens, UniProt O60674)
[2] = target: T2, Tyrosine-protein kinase JAK1 (Homo sapiens, UniProt P23458); format: cell-based
[3] = target: T1, Tyrosine-protein kinase JAK2; remark: listed apart in the source
[4] = target: T2, Tyrosine-protein kinase JAK1
[5] = target: T3, Tyrosine-protein kinase JAK3 (Mus musculus, UniProt Q62137); format: cell-based
T3 sequence (Q62137 whole entry): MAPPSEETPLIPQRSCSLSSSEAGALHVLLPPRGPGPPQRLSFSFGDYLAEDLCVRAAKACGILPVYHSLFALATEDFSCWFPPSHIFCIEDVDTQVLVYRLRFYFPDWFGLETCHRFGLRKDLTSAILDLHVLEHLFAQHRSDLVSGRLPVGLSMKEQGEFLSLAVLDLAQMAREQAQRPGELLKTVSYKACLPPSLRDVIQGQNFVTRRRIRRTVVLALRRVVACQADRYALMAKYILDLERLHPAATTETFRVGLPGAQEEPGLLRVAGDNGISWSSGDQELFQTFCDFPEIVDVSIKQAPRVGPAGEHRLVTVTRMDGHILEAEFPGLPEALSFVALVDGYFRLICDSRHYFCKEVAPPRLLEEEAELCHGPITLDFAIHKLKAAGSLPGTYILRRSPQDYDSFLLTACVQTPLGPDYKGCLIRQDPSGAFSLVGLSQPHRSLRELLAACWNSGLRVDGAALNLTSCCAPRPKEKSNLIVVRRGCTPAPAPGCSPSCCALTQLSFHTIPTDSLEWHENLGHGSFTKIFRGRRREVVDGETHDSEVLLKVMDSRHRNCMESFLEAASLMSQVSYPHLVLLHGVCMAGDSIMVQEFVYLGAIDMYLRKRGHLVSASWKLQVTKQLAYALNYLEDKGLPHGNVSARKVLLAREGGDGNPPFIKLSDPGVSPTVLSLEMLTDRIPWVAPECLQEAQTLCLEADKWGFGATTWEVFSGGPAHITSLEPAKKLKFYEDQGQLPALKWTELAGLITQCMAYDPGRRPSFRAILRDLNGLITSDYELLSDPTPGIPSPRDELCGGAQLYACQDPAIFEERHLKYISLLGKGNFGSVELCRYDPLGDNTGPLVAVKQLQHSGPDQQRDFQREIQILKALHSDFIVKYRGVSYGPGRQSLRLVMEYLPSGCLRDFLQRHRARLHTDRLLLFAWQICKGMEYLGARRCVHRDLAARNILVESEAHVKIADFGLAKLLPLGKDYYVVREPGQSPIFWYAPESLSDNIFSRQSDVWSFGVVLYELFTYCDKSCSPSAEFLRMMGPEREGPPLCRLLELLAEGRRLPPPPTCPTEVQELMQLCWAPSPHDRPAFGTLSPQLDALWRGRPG

[6] = target: T1, Tyrosine-protein kinase JAK2; format: cell-based, Blood, CD34+ cell

T1 sequence (O60674 whole entry): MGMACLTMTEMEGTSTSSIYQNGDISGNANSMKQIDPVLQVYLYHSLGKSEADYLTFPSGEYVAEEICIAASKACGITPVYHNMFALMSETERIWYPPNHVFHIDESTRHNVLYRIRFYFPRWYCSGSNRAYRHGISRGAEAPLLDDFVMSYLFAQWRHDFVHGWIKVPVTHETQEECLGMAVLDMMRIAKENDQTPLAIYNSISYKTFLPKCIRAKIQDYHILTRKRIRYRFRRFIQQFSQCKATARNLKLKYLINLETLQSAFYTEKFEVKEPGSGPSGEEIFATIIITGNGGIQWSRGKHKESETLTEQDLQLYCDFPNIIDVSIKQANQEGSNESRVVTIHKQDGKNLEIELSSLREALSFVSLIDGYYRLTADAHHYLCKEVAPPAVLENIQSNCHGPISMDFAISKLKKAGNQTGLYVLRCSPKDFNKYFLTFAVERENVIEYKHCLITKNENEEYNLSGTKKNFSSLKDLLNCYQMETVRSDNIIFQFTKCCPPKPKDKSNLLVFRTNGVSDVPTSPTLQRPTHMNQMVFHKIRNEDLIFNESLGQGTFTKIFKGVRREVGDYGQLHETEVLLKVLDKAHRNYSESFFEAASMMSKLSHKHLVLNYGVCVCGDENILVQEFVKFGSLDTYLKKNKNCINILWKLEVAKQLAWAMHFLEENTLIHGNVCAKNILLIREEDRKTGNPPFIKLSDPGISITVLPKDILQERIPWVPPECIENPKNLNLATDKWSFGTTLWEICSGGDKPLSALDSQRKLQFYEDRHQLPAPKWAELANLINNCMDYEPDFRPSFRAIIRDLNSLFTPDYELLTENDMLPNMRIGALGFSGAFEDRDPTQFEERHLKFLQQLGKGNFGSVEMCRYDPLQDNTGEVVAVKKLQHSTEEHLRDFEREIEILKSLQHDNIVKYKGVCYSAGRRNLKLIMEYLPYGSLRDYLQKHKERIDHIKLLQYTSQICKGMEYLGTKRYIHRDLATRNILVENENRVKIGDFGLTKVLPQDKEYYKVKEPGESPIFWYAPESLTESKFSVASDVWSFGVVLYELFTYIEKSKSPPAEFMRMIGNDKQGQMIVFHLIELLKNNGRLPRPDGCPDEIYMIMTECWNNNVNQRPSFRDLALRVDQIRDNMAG
T2 sequence (P23458 whole entry): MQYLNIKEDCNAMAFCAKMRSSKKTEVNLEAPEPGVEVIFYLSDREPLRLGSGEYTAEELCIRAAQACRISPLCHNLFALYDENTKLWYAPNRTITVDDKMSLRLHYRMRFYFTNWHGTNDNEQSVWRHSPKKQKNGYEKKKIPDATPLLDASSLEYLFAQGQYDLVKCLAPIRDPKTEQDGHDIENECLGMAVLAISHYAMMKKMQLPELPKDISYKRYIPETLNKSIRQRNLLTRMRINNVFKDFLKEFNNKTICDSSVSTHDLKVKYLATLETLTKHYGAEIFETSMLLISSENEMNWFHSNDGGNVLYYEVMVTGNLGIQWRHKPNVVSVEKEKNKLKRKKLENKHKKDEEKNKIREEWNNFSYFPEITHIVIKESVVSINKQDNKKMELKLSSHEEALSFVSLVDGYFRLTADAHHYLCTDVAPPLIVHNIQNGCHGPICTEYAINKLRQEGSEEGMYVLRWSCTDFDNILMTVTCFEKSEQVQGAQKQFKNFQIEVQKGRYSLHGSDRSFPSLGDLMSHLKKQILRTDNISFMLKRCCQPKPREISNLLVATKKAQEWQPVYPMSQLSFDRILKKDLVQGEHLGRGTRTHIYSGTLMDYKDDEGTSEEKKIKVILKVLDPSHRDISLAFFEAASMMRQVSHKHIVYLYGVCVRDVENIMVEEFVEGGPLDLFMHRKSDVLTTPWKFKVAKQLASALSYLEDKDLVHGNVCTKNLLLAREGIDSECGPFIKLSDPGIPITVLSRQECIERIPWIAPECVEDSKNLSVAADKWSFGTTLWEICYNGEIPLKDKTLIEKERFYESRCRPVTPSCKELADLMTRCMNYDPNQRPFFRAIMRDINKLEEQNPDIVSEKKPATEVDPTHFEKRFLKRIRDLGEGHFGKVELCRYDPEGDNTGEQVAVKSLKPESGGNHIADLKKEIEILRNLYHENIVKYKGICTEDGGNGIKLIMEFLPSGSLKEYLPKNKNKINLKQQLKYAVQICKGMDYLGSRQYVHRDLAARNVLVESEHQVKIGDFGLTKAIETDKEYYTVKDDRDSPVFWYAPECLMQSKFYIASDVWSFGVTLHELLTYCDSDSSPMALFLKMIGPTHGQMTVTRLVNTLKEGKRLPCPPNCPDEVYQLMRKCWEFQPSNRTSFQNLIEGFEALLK

In the case of `CC[C@@](C)(Nc1ccnc(-c2c[nH]c3ncccc23)n1)C(=O)NCC(F)(F)F` [DECERNOTINIB], the IC50 [1] is reported as 619 nM, the Ki [1] is reported as 13 nM and the IC50 [2] is reported as 50 nM. For the same molecule, the IC50 [3] was 24 nM, the IC50 [4] was 13.2 nM and the IC50 [5] was 50 nM. The IC50 [6] was greater than 10000 nM.
